Measurements: patent US9796709B2, “5-hydroxy-4-(trifluoromethyl)pyrazolopyridine derivative” (Daiichi Sankyo Company, Limited, priority 2013, dated 2017)
pEC50: −log10 of the molar value.

Target: T1, LCAT (Homo sapiens, UniProt P04180)
T1 construct: The obtained fraction was dialyzed against phosphate-buffered saline (pH 7.4) and used as an enzyme source and an acceptor for LCAT; from tissue; host or cells: HDL3 fraction (1.125 < specific gravity < 1.210 g/mL) of plasma from a healthy person
T1 sequence (P04180 25-440): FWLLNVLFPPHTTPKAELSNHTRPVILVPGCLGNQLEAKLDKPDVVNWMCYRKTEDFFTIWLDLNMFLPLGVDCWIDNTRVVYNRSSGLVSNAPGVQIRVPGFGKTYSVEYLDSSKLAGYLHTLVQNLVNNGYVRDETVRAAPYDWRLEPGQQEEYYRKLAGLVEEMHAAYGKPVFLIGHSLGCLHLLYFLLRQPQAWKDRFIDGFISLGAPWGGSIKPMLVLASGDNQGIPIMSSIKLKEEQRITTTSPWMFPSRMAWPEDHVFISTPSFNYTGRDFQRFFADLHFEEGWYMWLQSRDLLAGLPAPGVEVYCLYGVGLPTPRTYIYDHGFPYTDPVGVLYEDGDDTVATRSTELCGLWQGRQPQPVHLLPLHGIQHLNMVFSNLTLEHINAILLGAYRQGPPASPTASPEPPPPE
Experiment: LCAT activity measurement (in vitro), [14C]cholesterol esterification with HDL3 fraction
Assay type: biochemical
Details: HDL3 fraction from plasma of a healthy person as enzyme source and acceptor; 37° C., approximately 16 hours; relative to sample without test drug; read-out: EC50 of LCAT activation
Procedure: A fraction composed of HDL3 (1.125 <specific gravity <1.210 g/mL) was obtained from the plasma of a healthy person by density gradient centrifugation. The obtained fraction was dialyzed against phosphate-buffered saline (pH 7.4) and used as an enzyme source and an acceptor for LCAT. Each test drug was prepared by dissolution in dimethyl sulfoxide. [^14C]Cholesterol containing DTNB (Ellman's reagent, final concentration: 0.5 mM), mercaptoethanol (final concentration: 12.5 mM), and 0.6% bovine serum albumin was added to phosphate-buffered saline (pH 7.4) containing 1 mg/mL HDL3, and the test drug was further added thereto at varying concentrations to adjust the whole amount to 80 μL. This mixture was incubated at 37° C. for approximately 16 hours. Then, a mixed solution of hexane and isopropanol (mixing ratio=3:2) was added thereto to stop the reaction. After stirring, the hexane layer was collected, and this layer was evaporated to dryness. A chloroform solution (concentration: 10 mg/mL) was added thereto, and the mixture was spotted onto a thin-layer silica gel plate and developed using a mixed solution of hexane, diethyl ether, and ethyl acetate (mixing ratio=85:15:2). The radioactivity of a portion corresponding to cholesterol oleate was measured using an imaging analyzer BAS-2500 (manufactured by Fujifilm Corp.). A sample non-supplemented with the test drug was similarly treated and assayed. The EC50 value of LCAT activation was calculated according to the expression given below relative to LCAT activity in the sample non-supplemented with the test drug.
[formula] • wherein X represents the logarithm of the concentration of the test drug; • Y represents the responsiveness (LCAT activity) of the test drug; • Top represents the maximum value (maximum plateau); • Bottom represents the minimum value (minimum plateau); and • EC50 represents the 50% effective concentration.

| Structure (SMILES) | pEC50 |
| --- | --- |
| CC(C)c1nc(N2CCC(c3n[nH]c4c3[C@@H](C(F)(F)F)[C@@H](O)C(=O)N4)CC2)cc(C(F)(F)F)n1 (racemic) [Example 9, cis-5-Hydroxy-3-{1-[2-isopropyl-6-(trifluoromethyl)pyrimidin-4-yl]piperidin-4-yl}-4-(trifluoromethyl)-1,4,5,7-tetrahydro-6H-pyrazolo[3,4-b]pyridin-6-one] | 7.57 |
| O=C1Nc2[nH]nc(C3CCN(c4nc(C(F)(F)F)cs4)CC3)c2[C@@H](C(F)(F)F)[C@H]1O (racemic) [Example 15, cis-5-Hydroxy-4-(trifluoromethyl)-3-{1-[4-(trifluoromethyl)-1,3-thiazol-2-yl]piperidin-4-yl}-1,4,5,7-tetrahydro-6H-pyrazolo[3,4-b]pyridin-6-one] | 6.54 |
| O=C1Nc2[nH]nc(C3CCN(c4ccc(C(F)(F)F)nc4)CC3)c2[C@@H](C(F)(F)F)[C@H]1O (single isomer, unassigned) [Example 23, (+)-cis-5-Hydroxy-4-(trifluoromethyl)-3-{1-[6-(trifluoromethyl)pyridin-3-yl]piperidin-4-yl}-1,4,5,7-tetrahydro-6H-pyrazolo[3,4-b]pyridin-6-one] | 8.10 |
| O=C1Nc2[nH]nc(C3CCN(c4ccc(C(F)(F)F)nn4)CC3)c2[C@@H](C(F)(F)F)[C@H]1O (single isomer, unassigned) [Example 19, (+)-cis-5-Hydroxy-4-(trifluoromethyl)-3-{1-[6-(trifluoromethyl)pyridazin-3-yl]piperidin-4-yl}-1,4,5,7-tetrahydro-6H-pyrazolo[3,4-b]pyridin-6-one] | 7.46 |
| N#Cc1ncc(N2CCC(c3n[nH]c4c3[C@@H](C(F)(F)F)[C@@H](O)C(=O)N4)CC2)cc1F (single isomer, unassigned) [Example 24, (+)-3-Fluoro-5-{4-[cis-5-hydroxy-6-oxo-4-(trifluoromethyl)-4,5,6,7-tetrahydro-1H-pyrazolo[3,4-b]pyridin-3-yl]piperidin-1-yl}pyridine-2-carbonitrile] | 7.52 |
| O=C1Nc2[nH]nc(C3CCN(c4ccc(OC(F)F)cn4)CC3)c2[C@@H](C(F)(F)F)[C@H]1O (racemic) [Example 37, cis-3-{1-[5-(Difluoromethoxy)pyridin-2-yl]piperidin-4-yl}-5-hydroxy-4-(trifluoromethyl)-1,4,5,7-tetrahydro-6H-pyrazolo[3,4-b]pyridin-6-one] | 7.03 |
| CC(C)Oc1ccc(N2CCC(c3n[nH]c4c3[C@@H](C(F)(F)F)[C@@H](O)C(=O)N4)CC2)nc1 (racemic) [Example 5, cis-5-Hydroxy-3-[1-(5-isopropoxypyridin-2-yl)piperidin-4-yl]-4-(trifluoromethyl)-1,4,5,7-tetrahydro-6H-pyrazolo[3,4-b]pyridin-6-one] | 6.80 |
| O=C1Nc2[nH]nc(C3CCN(c4ccc(-c5ccccc5)nn4)CC3)c2[C@@H](C(F)(F)F)[C@H]1O (single isomer, unassigned) [Example 29, cis-5-hydroxy-3-[1-(6-phenylpyridazin-3-yl)piperidin-4-yl]-4-(trifluoromethyl)-1,4,5,7-tetrahydro-6H-pyrazolo[3,4-b]pyridin-6-one] | 7.96 |
| O=C1Nc2[nH]nc(C3CCN(c4ccc(C(F)(F)F)nn4)CC3)c2[C@@H](C(F)(F)F)[C@@H]1O (racemic) [Example 6, trans-5-Hydroxy-4-(trifluoromethyl)-3-{1-[6-(trifluoromethyl)pyridazin-3-yl]piperidin-4-yl}-1,4,5,7-tetrahydro-6H-pyrazolo[3,4-b]pyridin-6-one] | 5.65 |
| O=C1Nc2[nH]nc(C3CCN(c4cncc(C(F)(F)F)c4)CC3)c2[C@@H](C(F)(F)F)[C@H]1O (single isomer, unassigned) [Example 38, (+)-cis-5-Hydroxy-4-(trifluoromethyl)-3-{1-[5-(trifluoromethyl)pyridin-3-yl]piperidin-4-yl}-1,4,5,7-tetrahydro-6H-pyrazolo[3,4-b]pyridin-6-one] | 7.62 |
| N#Cc1cnc(N2CCC(c3n[nH]c4c3[C@@H](C(F)(F)F)[C@@H](O)C(=O)N4)CC2)cn1 (single isomer, unassigned) [Example 28, (+)-5-{4-[cis-5-Hydroxy-6-oxo-4-(trifluoromethyl)-4,5,6,7-tetrahydro-1H-pyrazolo[3,4-b]pyridin-3-yl]piperidin-1-yl}pyrazine-2-carbonitrile] | 6.80 |

The remaining lines, values ahead:

| pEC50 | Structure (SMILES) |
| --- | --- |
| 8.15 | O=C(OCc1ccccc1)c1cc(N2CCC(c3n[nH]c4c3[C@@H](C(F)(F)F)[C@@H](O)C(=O)N4)CC2)ncc1C(F)(F)F (single isomer, unassigned) [Example 32, Benzyl (+)-2-{4-[cis-5-hydroxy-6-oxo-4-(trifluoromethyl)-4,5,6,7-tetrahydro-1H-pyrazolo[3,4-b]pyridin-3-yl]piperidin-1-yl}-5-(trifluoromethyl)pyridine-4-carboxylate] |
| 6.06 | O=C1Nc2[nH]nc(C3CCN(c4ccc(C(F)(F)F)cn4)CC3)c2[C@@H](C(F)(F)F)[C@@H]1O (racemic) [Example 1, trans-5-Hydroxy-4-(trifluoromethyl)-3-{1-[5-(trifluoromethyl)pyridin-2-yl]piperidin-4-yl}-1,4,5,7-tetrahydro-6H-pyrazolo[3,4-b]pyridin-6-one] |
| 7.39 | CC(C)Oc1ccc(N2CCC(c3n[nH]c4c3[C@@H](C(F)(F)F)[C@@H](O)C(=O)N4)CC2)nc1 (single isomer, unassigned) [Example 36, (+)-cis-5-Hydroxy-3-[1-(5-isopropoxypyridin-2-yl)piperidin-4-yl]-4-(trifluoromethyl)-1,4,5,7-tetrahydro-6H-pyrazolo[3,4-b]pyridin-6-one] |
| 7.04 | CC(C)Oc1ccc(N2CCC(c3n[nH]c4c3[C@@H](C(F)(F)F)[C@@H](O)C(=O)N4)CC2)cn1 (single isomer, unassigned) [Example 39, cis-5-hydroxy-3-[1-(6-isopropoxypyridin-3-yl)piperidin-4-yl]-4-(trifluoromethyl)-1,4,5,7-tetrahydro-6H-pyrazolo[3,4-b]pyridin-6-one] |
| 7.40 | O=C1Nc2[nH]nc(C3CCN(c4ccc(C(F)(F)F)cn4)CC3)c2[C@@H](C(F)(F)F)[C@H]1O (racemic) [Example 2, cis-5-Hydroxy-4-(trifluoromethyl)-3-{1-[5-(trifluoromethyl)pyridin-2-yl]piperidin-4-yl}-1,4,5,7-tetrahydro-6H-pyrazolo[3,4-b]pyridin-6-one] |
| 6.42 | O=C1Nc2[nH]nc(C3CCN(c4ncc(C(F)(F)F)cc4Cl)CC3)c2[C@@H](C(F)(F)F)[C@H]1O (racemic) [Example 14, cis-3-{1-[3-Chloro-5-(trifluoromethyl)pyridin-2-yl]piperidin-4-yl}-5-hydroxy-4-(trifluoromethyl)-1,4,5,7-tetrahydro-6H-pyrazolo[3,4-b]pyridin-6-one] |
| 7.46 | CC(C)Oc1ccc(N2CCC(c3n[nH]c4c3[C@@H](C(F)(F)F)[C@@H](O)C(=O)N4)CC2)nn1 (single isomer, unassigned) [Example 41, (+)-cis-5-Hydroxy-3-[1-(6-isopropoxypyridazin-3-yl)piperidin-4-yl]-4-(trifluoromethyl)-1,4,5,7-tetrahydro-6H-pyrazolo[3,4-b]pyridin-6-one] |
| 7.47 | N#Cc1cncc(N2CCC(c3n[nH]c4c3[C@@H](C(F)(F)F)[C@@H](O)C(=O)N4)CC2)c1 (single isomer, unassigned) [Example 31, (+)-5-{4-[cis-5-Hydroxy-6-oxo-4-(trifluoromethyl)-4,5,6,7-tetrahydro-1H-pyrazolo[3,4-b]pyridin-3-yl]piperidin-1-yl}pyridine-3-carbonitrile] |
| 7.43 | N#Cc1cnc(N2CCC(c3n[nH]c4c3[C@@H](C(F)(F)F)[C@@H](O)C(=O)N4)CC2)cc1C(F)(F)F (racemic) [Example 13, 6-{4-[cis-5-Hydroxy-6-oxo-4-(trifluoromethyl)-4,5,6,7-tetrahydro-1H-pyrazolo[3,4-b]pyridin-3-yl]piperidin-1-yl}-4-(trifluoromethyl)pyridine-3-carbonitrile] |
| 7.15 | O=C1Nc2[nH]nc(C3CCN(c4cnc(C5CC5)nc4)CC3)c2[C@@H](C(F)(F)F)[C@H]1O (single isomer, unassigned) [Example 40, cis-3-[1-(2-cyclopropylpyrimidin-5-yl)piperidin-4-yl]-5-hydroxy-4-(trifluoromethyl)-1,4,5,7-tetrahydro-6H-pyrazolo[3,4-b]pyridin-6-one] |
